Data reported in publication PMC10465233, “Lys-urea-Aad, Lys-urea-Cmc and Lys-urea-Cms as potential pharmacophores for the design of PSMA-targeted radioligands to reduce off-target uptake in kidneys and salivary glands” (Theranostics, 2023).

Tested on: LNCaP tumor-bearing mice
Test: Ex vivo biodistribution in LNCaP tumor-bearing mice
Parameters: species or system mouse
Procedure: Imaging, biodistribution and radioligand therapy experiments were performed following previously published procedures using male NOD-scid IL2Rg^null (NSG) or NOD.Cg-Rag1^tm1MomIl2rg^tm1Wjl/SzJ (NRG) mice [10]-[12],[14]-[15]. The experiments were conducted according to the guidelines established by the Canadian Council on Animal Care and approved by Animal Ethics Committee of the University of British Columbia. The mice were briefly sedated by inhalation of 2% isoflurane in oxygen, and implanted subcutaneously with 1×10^7 LNCaP cells behind the left shoulder. The mice were imaged or used in biodistribution studies when the tumor grew to 5-8 mm in diameter over a period of 4-5 weeks.
For biodistribution studies, the mice were injected with the radioligand (2-4 MBq) as described above. For blocking, the mice were co-injected with nonradioactive DCFPyL (0.5 mg). At predetermined time points, the mice were sedated by isoflurane inhalation and euthanized by CO2 inhalation. Blood was withdrawn by cardiac puncture, and organs/tissues of interest were collected, weighed and counted using an automatic gamma counter (Tables S4-S7).

## COc1ccc(CCCC(=O)NCC(=O)N[C@@H](CCCCNC(=O)CN2CCN(CC(=O)[O-])CCN(CC(=O)[O-])CCN(CC(=O)[O-])CC2)C(=O)NC[C@H]2CC[C@H](C(=O)N[C@@H](Cc3c4ccccc4cc4ccccc34)C(=O)NCCCC[C@H](NC(=O)N[C@@H](CSCC(=O)O)C(=O)O)C(=O)O)CC2)cc1.[177Lu+3] [[^177Lu]Lu-HTK04048]
1 h post-injection
  Adrenal glands uptake: 4.43 ± 1.11 %ID/g
  Blood uptake: 19.8 ± 3.38 %ID/g
  Blood:Salivary gland uptake ratio: 6.78 ± 0.76
  Bone uptake: 1.10 ± 0.16 %ID/g
  Brain uptake: 0.29 ± 0.03 %ID/g
  Fat uptake: 1.56 ± 0.45 %ID/g
  Heart uptake: 4.74 ± 0.60 %ID/g
  Intestines uptake: 1.38 ± 0.22 %ID/g
  Kidneys uptake: 17.4 ± 4.32 %ID/g
  Lacrimal glands uptake: 0.42 ± 0.12 %ID/g
  Liver uptake: 3.94 ± 0.69 %ID/g
  Lungs uptake: 9.52 ± 1.44 %ID/g
  Muscle uptake: 1.54 ± 0.20 %ID/g
  Pancreas uptake: 1.77 ± 0.17 %ID/g
  Salivary glands uptake: 2.92 ± 0.36 %ID/g
  Spleen uptake: 2.57 ± 0.48 %ID/g
  Stomach uptake: 0.75 ± 0.11 %ID/g
  Testes uptake: 2.60 ± 0.62 %ID/g
  Thyroid uptake: 3.97 ± 0.47 %ID/g
  Tumor uptake: 16.5 ± 5.48 %ID/g
  Tumor:Blood uptake ratio: 0.84 ± 0.22
  Tumor:Kidney uptake ratio: 0.99 ± 0.34
  Tumor:Muscle uptake ratio: 10.7 ± 2.87
  Tumor:Salivary gland uptake ratio: 5.64 ± 1.51
4 h post-injection
  Adrenal glands uptake: 2.17 ± 0.21 %ID/g
  Blood uptake: 11.7 ± 1.39 %ID/g
  Blood:Salivary gland uptake ratio: 6.12 ± 0.58
  Bone uptake: 0.69 ± 0.11 %ID/g
  Brain uptake: 0.18 ± 0.01 %ID/g
  Fat uptake: 0.94 ± 0.13 %ID/g
  Heart uptake: 2.87 ± 0.30 %ID/g
  Intestines uptake: 1.00 ± 0.08 %ID/g
  Kidneys uptake: 12.5 ± 1.35 %ID/g
  Lacrimal glands uptake: 0.54 ± 0.52 %ID/g
  Liver uptake: 2.28 ± 0.46 %ID/g
  Lungs uptake: 5.92 ± 0.79 %ID/g
  Muscle uptake: 0.96 ± 0.09 %ID/g
  Pancreas uptake: 1.15 ± 0.14 %ID/g
  Salivary glands uptake: 1.91 ± 0.20 %ID/g
  Spleen uptake: 1.96 ± 0.39 %ID/g
  Stomach uptake: 0.71 ± 0.13 %ID/g
  Testes uptake: 2.72 ± 0.34 %ID/g
  Thyroid uptake: 2.68 ± 0.23 %ID/g
  Tumor uptake: 39.4 ± 22.4 %ID/g
  Tumor:Blood uptake ratio: 3.49 ± 2.31
  Tumor:Kidney uptake ratio: 3.27 ± 2.16
  Tumor:Muscle uptake ratio: 42.2 ± 27.3
  Tumor:Salivary gland uptake ratio: 20.9 ± 11.9
24 h post-injection
  Adrenal glands uptake: 0.67 ± 0.26 %ID/g
  Blood uptake: 0.62 ± 0.16 %ID/g
  Blood:Salivary gland uptake ratio: 1.61 ± 0.40
  Bone uptake: 0.11 ± 0.02 %ID/g
  Brain uptake: 0.03 ± 0.00 %ID/g
  Fat uptake: 0.15 ± 0.05 %ID/g
  Heart uptake: 0.34 ± 0.05 %ID/g
  Intestines uptake: 0.46 ± 0.31 %ID/g
  Kidneys uptake: 5.68 ± 1.28 %ID/g
  Lacrimal glands uptake: 0.06 ± 0.01 %ID/g
  Liver uptake: 0.77 ± 0.52 %ID/g
  Lungs uptake: 1.05 ± 0.36 %ID/g
  Muscle uptake: 0.11 ± 0.02 %ID/g
  Pancreas uptake: 0.15 ± 0.03 %ID/g
  Salivary glands uptake: 0.39 ± 0.08 %ID/g
  Spleen uptake: 0.64 ± 0.10 %ID/g
  Stomach uptake: 0.83 ± 0.66 %ID/g
  Testes uptake: 0.67 ± 0.24 %ID/g
  Thyroid uptake: 0.53 ± 0.07 %ID/g
  Tumor uptake: 65.3 ± 19.6 %ID/g
  Tumor:Blood uptake ratio: 113 ± 44.5
  Tumor:Kidney uptake ratio: 11.5 ± 2.22
  Tumor:Muscle uptake ratio: 594 ± 177
  Tumor:Salivary gland uptake ratio: 175 ± 58.1
72 h post-injection
  Adrenal glands uptake: 0.33 ± 0.06 %ID/g
  Blood uptake: 0.08 ± 0.06 %ID/g
  Blood:Salivary gland uptake ratio: 0.43 ± 0.28
  Bone uptake: 0.06 ± 0.02 %ID/g
  Brain uptake: 0.01 ± 0.00 %ID/g
  Fat uptake: 0.07 ± 0.03 %ID/g
  Heart uptake: 0.14 ± 0.03 %ID/g
  Intestines uptake: 0.13 ± 0.08 %ID/g
  Kidneys uptake: 2.19 ± 0.21 %ID/g
  Lacrimal glands uptake: 0.01 ± 0.01 %ID/g
  Liver uptake: 0.25 ± 0.02 %ID/g
  Lungs uptake: 0.26 ± 0.08 %ID/g
  Muscle uptake: 0.03 ± 0.01 %ID/g
  Pancreas uptake: 0.06 ± 0.01 %ID/g
  Salivary glands uptake: 0.18 ± 0.03 %ID/g
  Spleen uptake: 0.54 ± 0.14 %ID/g
  Stomach uptake: 0.20 ± 0.17 %ID/g
  Testes uptake: 0.35 ± 0.05 %ID/g
  Thyroid uptake: 0.28 ± 0.05 %ID/g
  Tumor uptake: 64.1 ± 15.0 %ID/g
  Tumor:Blood uptake ratio: 1493 ± 1213
  Tumor:Kidney uptake ratio: 29.2 ± 6.22
  Tumor:Muscle uptake ratio: 2043 ± 734
  Tumor:Salivary gland uptake ratio: 362 ± 111
120 h post-injection
  Adrenal glands uptake: 0.30 ± 0.14 %ID/g
  Blood uptake: 0.04 ± 0.03 %ID/g
  Blood:Salivary gland uptake ratio: 0.22 ± 0.13
  Bone uptake: 0.05 ± 0.02 %ID/g
  Brain uptake: 0.01 ± 0.00 %ID/g
  Fat uptake: 0.05 ± 0.03 %ID/g
  Heart uptake: 0.08 ± 0.02 %ID/g
  Intestines uptake: 0.10 ± 0.10 %ID/g
  Kidneys uptake: 1.43 ± 0.48 %ID/g
  Lacrimal glands uptake: 0.01 ± 0.01 %ID/g
  Liver uptake: 0.18 ± 0.07 %ID/g
  Lungs uptake: 0.12 ± 0.05 %ID/g
  Muscle uptake: 0.02 ± 0.01 %ID/g
  Pancreas uptake: 0.05 ± 0.03 %ID/g
  Salivary glands uptake: 0.13 ± 0.03 %ID/g
  Spleen uptake: 0.55 ± 0.27 %ID/g
  Stomach uptake: 0.04 ± 0.02 %ID/g
  Testes uptake: 0.22 ± 0.09 %ID/g
  Thyroid uptake: 0.17 ± 0.02 %ID/g
  Tumor uptake: 65.7 ± 19.1 %ID/g
  Tumor:Blood uptake ratio: 4346 ± 4168
  Tumor:Kidney uptake ratio: 52.1 ± 16.3
  Tumor:Muscle uptake ratio: 3358 ± 2122
  Tumor:Salivary gland uptake ratio: 604 ± 226
mouse, in vivo
  Peaked tumor uptake relative to ^68Ga-labeled non-albumin-binder analog: ~ 3 fold
Peak over 1-120 h post-injection
  Peaked average tumor uptake: ~ 60 %ID/g
post-injection, listed as 177Lu-labeled HTK04048
  Time of peak tumor uptake: 4 to 24 h
